Source: patent US20240245677A1, “SELECTED COMPOUNDS FOR TARGETED DEGRADATION OF BRD9” (C4 THERAPEUTICS, INC., priority 2021, published 2024)
In brackets after ≈: the same amount, converted by molar mass.

Key:
[1] = Crystallization under nitrogen flow by fast evaporation; type: physicochemical
Description: Based on approximate solubility results, about 10 mg of Compound 1 free form Pattern E was dissolved in suitable amount of solvents. […] Solid residues were examined for their polymorphic form.

[2] = Crystallization by heat-cool DSC; type: physicochemical; conditions: Cycle 2: 30 to 180° C. at 10° C./min; 180 to −20° C. at 2° C./min; re-heat to 250° C. at 10° C./min
Description: Polymorphic behavior of Compound 1 free form was investigated by two different heat-cool DSC cycles using free form Pattern E. A Tzero pan and a Tzero hermetic lid with a pin hole were used for this experiment. Cycle 1: 30° C. to 180° C. at 10° C./min; 180° C. to −20° C. at 20° C./min; reheat to 250° C. at 10° C./min. Cycle 2: 30° C. to 180° C. at 10° C./min; 180° C. to −20° C. at 2° C./min; reheat to 250° C. at 10° C./min.

[3] = Approximate solubility in solvents at 25° C. and 50° C. (visual observation); type: physicochemical; conditions: thermodynamic from solid, 25° C., target conc. = 250 mg/mL
Description: Max. volume of each solvent added was 1 mL. Approximate solubility was determined by visual observation.
Max volume of each solvent added was 1 mL. Approximate solubility was determined by visual observation.

[4] = biological target: T1, SALL4 (Homo sapiens, UniProt Q96SW2+Q9UJQ4); assay: SALL4 HiBiT degradation assay in KELLY.2 cells; type: cell-based
T1 construct: CRISPR-edited to endogenously express HiBiT tagged SALL4; host or cells: KELLY.2
Text: Nano-Glo® HiBiT Lytic Assay System was purchased from Promega (Catalog No. N3050, Madison, WI, USA). […] The HiBiT polypeptide tag was introduced into the C-terminus of the endogenous SALL4 locus by CRISPR-Cas9 to produce the modified KELLY.2 cell line. The HiBiT polypeptide allows reconstitution of NanoBiT enzyme following cell lysis and addition of the complementing LgBiT polypeptide that activates substrate to produce a luminescent signal that is directly proportional to the amount of HiBiT-tagged SALL4.
KELLY.2 cells were routinely sub-cultured to maintain cell density between 30-80% confluence, not to exceed 10 passages. Cells were washed with PBS, trypsinized for 5 minutes at 37° C., and resuspended in fresh growth media without phenol red. […] Cell concentration was adjusted with growth media without phenol red to 2×10^5 cells/mL.
30 nL DMSO was transferred to all control wells.
30 μL of media was dispensed to column 24 as background positive control (P). Plates were spun briefly at 1000 rpm and cells were incubated at 37° C., 5% CO2 for 6 hours. Final concentration of DMSO was 0.1% for all samples.
Cellular SALL4 protein level was determined based on quantification of HiBiT using Nano-Glo® HiBiT Lytic Assay System (Promega). […] Cells treated in the absence of the test compound (0.1% DMSO vehicle) were the negative control (N) and wells containing only media were the positive control (P).
Percent response of compound-treated samples (T) were calculated by normalizing to the DMSO treated negative (N) controls on the same microtiter plate after background (i.e., positive control) signal subtraction:
Curve fit and DC50 (concentration that degrades 50% SALL4) determination was performed by 4 parametric logistic fit analysis using software such as GraphPad Prism software (GraphPad Software, LLC, San Diego, CA, USA). The fit was performed through minimization of the root mean squared error between observed and calculated values of the four-parameter logistic equation using the simplex optimizer of the Apache Commons Math library. […] DC50 values were computed as the concentrations where the fitted curves cross the 50% response level. Averages and standard deviations were computed from replicates of the experiment.

T1 sequence (Q9UJQ4 whole entry): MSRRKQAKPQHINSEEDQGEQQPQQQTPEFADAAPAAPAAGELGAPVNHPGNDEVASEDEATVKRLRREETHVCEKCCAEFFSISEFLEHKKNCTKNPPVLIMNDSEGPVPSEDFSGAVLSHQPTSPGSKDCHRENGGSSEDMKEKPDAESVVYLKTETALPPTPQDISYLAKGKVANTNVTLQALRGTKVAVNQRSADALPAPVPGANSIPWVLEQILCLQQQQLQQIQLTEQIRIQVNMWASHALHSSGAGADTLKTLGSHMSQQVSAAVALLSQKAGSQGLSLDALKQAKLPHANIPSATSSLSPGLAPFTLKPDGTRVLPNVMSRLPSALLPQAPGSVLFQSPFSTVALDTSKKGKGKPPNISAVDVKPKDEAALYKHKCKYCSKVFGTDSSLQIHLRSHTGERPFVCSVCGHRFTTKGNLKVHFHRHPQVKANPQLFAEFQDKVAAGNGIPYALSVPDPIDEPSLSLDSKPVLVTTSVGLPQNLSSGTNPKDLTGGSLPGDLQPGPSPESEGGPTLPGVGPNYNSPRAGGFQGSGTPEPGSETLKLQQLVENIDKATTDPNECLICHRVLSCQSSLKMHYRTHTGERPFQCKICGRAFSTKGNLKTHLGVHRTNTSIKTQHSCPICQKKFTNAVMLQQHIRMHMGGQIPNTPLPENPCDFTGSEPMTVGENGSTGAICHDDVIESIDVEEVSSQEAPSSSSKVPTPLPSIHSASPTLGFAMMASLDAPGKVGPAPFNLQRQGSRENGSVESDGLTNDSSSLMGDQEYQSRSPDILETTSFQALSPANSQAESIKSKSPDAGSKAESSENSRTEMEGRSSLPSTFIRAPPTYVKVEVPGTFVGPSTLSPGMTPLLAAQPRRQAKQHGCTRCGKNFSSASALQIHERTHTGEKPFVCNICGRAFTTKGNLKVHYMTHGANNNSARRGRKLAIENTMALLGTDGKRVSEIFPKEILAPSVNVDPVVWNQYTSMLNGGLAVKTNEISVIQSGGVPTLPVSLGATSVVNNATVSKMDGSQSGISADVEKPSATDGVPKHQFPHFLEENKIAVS
T1 sequence (Q96SW2 whole entry): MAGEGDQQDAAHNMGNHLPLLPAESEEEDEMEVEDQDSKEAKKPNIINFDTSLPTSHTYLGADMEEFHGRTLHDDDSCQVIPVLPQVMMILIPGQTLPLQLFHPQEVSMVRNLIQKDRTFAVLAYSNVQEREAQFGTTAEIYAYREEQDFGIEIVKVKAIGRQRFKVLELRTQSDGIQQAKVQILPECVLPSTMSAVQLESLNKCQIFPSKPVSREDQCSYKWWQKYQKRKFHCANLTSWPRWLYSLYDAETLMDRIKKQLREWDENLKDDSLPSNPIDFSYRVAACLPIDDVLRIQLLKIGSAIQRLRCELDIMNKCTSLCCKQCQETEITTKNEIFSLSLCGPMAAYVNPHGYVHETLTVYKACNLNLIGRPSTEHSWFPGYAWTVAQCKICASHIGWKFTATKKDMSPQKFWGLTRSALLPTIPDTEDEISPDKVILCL
T1 sequence (Q16531 2-1140 partner limits assumed): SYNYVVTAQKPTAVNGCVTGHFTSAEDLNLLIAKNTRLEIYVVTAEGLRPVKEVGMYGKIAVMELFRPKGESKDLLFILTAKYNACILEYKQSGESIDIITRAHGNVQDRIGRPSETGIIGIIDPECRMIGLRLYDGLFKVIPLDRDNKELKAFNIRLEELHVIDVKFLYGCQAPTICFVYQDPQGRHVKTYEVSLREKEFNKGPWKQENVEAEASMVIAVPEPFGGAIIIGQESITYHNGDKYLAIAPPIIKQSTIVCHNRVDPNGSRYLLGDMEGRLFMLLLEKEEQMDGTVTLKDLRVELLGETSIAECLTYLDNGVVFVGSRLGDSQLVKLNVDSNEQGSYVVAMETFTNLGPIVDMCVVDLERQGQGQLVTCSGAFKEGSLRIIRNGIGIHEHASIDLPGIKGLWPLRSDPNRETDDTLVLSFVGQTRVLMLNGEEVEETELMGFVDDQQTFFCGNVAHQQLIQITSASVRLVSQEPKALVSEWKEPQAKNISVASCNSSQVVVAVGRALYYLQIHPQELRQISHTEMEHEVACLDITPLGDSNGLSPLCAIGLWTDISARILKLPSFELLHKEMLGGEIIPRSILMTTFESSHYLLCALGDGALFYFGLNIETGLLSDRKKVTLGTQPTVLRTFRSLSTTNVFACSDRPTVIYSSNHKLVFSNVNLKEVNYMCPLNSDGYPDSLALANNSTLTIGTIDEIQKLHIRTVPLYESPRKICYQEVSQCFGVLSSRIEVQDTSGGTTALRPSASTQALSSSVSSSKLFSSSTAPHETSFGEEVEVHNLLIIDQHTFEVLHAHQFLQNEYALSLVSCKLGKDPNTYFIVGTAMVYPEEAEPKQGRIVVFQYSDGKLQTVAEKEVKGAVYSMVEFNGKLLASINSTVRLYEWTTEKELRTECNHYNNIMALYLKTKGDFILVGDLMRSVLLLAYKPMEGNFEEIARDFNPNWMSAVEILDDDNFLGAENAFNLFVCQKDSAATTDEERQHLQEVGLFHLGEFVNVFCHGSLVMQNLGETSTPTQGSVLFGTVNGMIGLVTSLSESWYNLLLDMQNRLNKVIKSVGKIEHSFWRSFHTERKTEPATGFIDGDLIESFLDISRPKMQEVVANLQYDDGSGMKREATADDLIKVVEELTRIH

COc1cc(-c2cn(C)c(=O)c(C)c2C)cc(OC)c1CN1CC[C@H](N2CCN(c3ccc(N[C@H]4CCC(=O)NC4=O)cc3F)CC2)C(F)(F)C1 [Compound 1, (S)-3-((4-(4-((S)-1-(2,6-dimethoxy-4-(1,4,5-trimethyl-6-oxo-1,6-dihydropyridin-3-yl)benzyl)-3,3-difluoropiperidin-4-yl)piperazin-1-yl)-3-fluorophenyl)amino)-piperidine-2,6-dione]
Comments ([1]; fast evaporation under nitrogen flow, 1,4-dioxane): Gel-like sample
Comments ([1]; fast evaporation under nitrogen flow, 2-MeTHF): Gel-like sample
Comments ([1]; fast evaporation under nitrogen flow, Acetone): Gel-like sample
XRPD ([1]; fast evaporation under nitrogen flow, Acetonitrile): Pattern B
Comments ([1]; fast evaporation under nitrogen flow, DCM): Gel-like sample
Comments ([1]; fast evaporation under nitrogen flow, Ethanol): Gel-like sample
Comments ([1]; fast evaporation under nitrogen flow, Ethyl acetate): Gel-like sample
Comments ([1]; fast evaporation under nitrogen flow, THF): Gel-like sample
Thermal events: Glass transition [2]: Glass transition: 135.7° C.; Delta Cp:
Solubility ([3]; organic solvent or mixture, Acetone): 17000 to 25000 µg/mL (≈ 23.9 to 35.2 mM)
Solubility ([3]; organic solvent or mixture, Acetonitrile): 6000 to 7000 µg/mL (≈ 8.44 to 9.85 mM)
Solubility ([3]; organic solvent or mixture, Ethanol): 5000 to 6000 µg/mL (≈ 7.03 to 8.44 mM)
Solubility ([3]; organic solvent or mixture, Ethyl acetate): 5000 to 6000 µg/mL (≈ 7.03 to 8.44 mM)
Solubility ([3]; organic solvent or mixture, Heptane): < 5000 µg/mL
Solubility ([3]; organic solvent or mixture, MTBE (Methyl tert-butyl ether)): < 5000 µg/mL
Solubility ([3]; organic solvent or mixture, Methanol): 10000 to 17000 µg/mL (≈ 14.1 to 23.9 mM)
Solubility ([3]; organic solvent or mixture, Methanol/water (v:v = 95:5)): 8000 to 13000 µg/mL (≈ 11.3 to 18.3 mM)
Solubility ([3]; organic solvent or mixture, THF (Tetrahydrofuran)): > 250000 µg/mL
Solubility ([3]; Water): < 5000 µg/mL
% SALL4 Remaining Relative to Vehicle Control at 6 hr, Mean ([4]; 0.101 nM): 103.8%
% SALL4 Remaining Relative to Vehicle Control at 6 hr, Mean ([4]; 0.318 nM): 104.1%
% SALL4 Remaining Relative to Vehicle Control at 6 hr, Mean ([4]; 1.01 nM): 104.1%
% SALL4 Remaining Relative to Vehicle Control at 6 hr, Mean ([4]; 3.17 nM): 103.7%
% SALL4 Remaining Relative to Vehicle Control at 6 hr, Mean ([4]; 10.0 nM): 106.5%
% SALL4 Remaining Relative to Vehicle Control at 6 hr, Mean ([4]; 31.7 nM): 106.1%
% SALL4 Remaining Relative to Vehicle Control at 6 hr, Mean ([4]; 100 nM): 104.2%
% SALL4 Remaining Relative to Vehicle Control at 6 hr, Mean ([4]; 317 nM): 105.0%
% SALL4 Remaining Relative to Vehicle Control at 6 hr, Mean ([4]; 1000 nM): 104.0%
% SALL4 Remaining Relative to Vehicle Control at 6 hr, Mean ([4]; 3161 nM): 104.4%
% SALL4 Remaining Relative to Vehicle Control at 6 hr, Mean ([4]; 9990 nM): 96.6%
Emax ([4]; SALL4-HiBiT, KELLY.2 cells, 6 hours, read-out: Mean Emax (%) ± SD): 98.9 ± 2.1%
effect on degradation of SALL4 ([4]; concentrations up to 10 μM, 6 hours): no significant effect
